Our source for the IC50 values is ChEMBL document CHEMBL1137148, “Synthesis, activity, metabolic stability, and pharmacokinetics of glucocorticoid receptor modulator-statin hybrids” (Bioorg Med Chem Lett, 2004).

SMILES strings stand for the structures. Bounds are passed on as bounds.

Experiment [1] concerns the target T1, Glucocorticoid receptor (Rattus norvegicus, UniProt P06536).
T1 sequence (P06536 whole entry): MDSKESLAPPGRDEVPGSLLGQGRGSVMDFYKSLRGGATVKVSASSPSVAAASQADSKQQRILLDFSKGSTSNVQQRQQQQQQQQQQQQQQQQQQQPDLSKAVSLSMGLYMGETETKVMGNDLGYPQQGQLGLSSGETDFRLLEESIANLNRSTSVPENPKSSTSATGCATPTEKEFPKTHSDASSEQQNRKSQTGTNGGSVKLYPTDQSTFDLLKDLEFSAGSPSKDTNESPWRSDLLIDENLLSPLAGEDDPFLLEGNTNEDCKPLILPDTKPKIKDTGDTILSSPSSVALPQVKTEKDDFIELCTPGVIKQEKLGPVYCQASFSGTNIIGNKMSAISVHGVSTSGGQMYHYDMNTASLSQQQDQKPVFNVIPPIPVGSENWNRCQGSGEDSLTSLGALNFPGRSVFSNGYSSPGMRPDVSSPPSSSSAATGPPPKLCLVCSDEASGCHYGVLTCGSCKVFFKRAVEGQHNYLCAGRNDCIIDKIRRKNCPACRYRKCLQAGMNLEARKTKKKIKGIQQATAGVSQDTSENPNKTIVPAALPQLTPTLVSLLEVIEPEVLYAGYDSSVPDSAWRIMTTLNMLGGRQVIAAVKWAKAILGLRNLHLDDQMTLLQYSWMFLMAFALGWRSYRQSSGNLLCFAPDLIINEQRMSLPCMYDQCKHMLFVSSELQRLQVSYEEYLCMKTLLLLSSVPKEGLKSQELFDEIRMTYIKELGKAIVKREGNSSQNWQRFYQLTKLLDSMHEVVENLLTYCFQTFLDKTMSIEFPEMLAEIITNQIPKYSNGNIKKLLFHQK
The experiment is described as follows: Inhibition of dexamethasone-induced glucocorticoid receptor mediated tyrosine aminotransferase in rat hepatocytes. The format is functional, cell-based, Hepatocyte.

Experiment [2] concerns the target T2, Glucocorticoid receptor (Homo sapiens, UniProt P04150).
T2 sequence (P04150 whole entry): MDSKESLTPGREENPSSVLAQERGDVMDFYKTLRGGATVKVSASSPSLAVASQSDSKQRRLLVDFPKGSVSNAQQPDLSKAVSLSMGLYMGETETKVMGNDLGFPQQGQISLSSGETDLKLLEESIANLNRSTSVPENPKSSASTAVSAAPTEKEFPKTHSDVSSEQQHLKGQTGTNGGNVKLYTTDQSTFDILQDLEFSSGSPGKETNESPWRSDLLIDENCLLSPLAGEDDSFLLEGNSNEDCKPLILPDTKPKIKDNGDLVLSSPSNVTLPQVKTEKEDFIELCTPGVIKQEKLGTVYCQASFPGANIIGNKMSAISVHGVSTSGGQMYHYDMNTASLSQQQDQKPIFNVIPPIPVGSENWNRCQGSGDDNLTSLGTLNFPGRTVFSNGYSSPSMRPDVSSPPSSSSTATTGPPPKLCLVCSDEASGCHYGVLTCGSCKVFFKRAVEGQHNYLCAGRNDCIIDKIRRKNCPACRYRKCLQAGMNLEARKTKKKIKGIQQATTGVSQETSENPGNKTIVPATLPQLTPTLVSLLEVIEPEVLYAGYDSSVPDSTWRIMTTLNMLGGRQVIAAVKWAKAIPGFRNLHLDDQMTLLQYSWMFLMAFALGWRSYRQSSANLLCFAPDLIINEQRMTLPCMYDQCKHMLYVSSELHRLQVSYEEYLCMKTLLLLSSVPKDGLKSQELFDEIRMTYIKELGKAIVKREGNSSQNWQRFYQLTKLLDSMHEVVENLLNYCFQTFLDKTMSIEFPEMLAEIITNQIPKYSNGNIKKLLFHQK

Experiment [3] deals with T2, Glucocorticoid receptor. The experiment is described as follows: Inhibition of dexamethasone-induced glucocorticoid receptor mediated alkaline phosphatase activity. The format is functional.
In another experiment the target is T3, Progesterone receptor (Homo sapiens, UniProt P06401).
T3 sequence (P06401 whole entry): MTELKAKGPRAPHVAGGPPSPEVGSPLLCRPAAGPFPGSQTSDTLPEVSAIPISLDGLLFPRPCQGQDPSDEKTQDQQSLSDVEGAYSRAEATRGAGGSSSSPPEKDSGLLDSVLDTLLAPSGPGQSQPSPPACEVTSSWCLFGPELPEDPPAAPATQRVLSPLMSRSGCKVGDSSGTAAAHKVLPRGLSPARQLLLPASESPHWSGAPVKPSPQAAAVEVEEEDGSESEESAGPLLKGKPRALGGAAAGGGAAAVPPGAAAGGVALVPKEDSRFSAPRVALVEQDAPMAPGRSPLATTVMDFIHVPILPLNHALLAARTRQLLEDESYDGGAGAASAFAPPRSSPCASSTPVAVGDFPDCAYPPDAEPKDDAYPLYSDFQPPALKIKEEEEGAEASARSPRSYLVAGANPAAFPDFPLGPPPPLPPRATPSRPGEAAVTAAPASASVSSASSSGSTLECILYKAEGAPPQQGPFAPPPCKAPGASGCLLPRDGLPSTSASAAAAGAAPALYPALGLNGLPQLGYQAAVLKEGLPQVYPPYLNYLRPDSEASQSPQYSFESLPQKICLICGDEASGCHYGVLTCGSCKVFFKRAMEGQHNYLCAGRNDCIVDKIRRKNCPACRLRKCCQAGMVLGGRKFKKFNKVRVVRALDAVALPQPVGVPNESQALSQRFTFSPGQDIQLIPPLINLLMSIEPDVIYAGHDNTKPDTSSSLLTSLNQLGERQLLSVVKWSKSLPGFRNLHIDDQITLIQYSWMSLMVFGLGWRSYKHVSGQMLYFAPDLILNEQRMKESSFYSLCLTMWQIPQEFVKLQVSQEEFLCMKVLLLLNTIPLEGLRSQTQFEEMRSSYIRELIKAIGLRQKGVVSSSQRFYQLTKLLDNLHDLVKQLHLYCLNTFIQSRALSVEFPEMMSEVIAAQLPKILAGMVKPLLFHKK
Description: Inhibition of human progesterone receptor.

One may read the IC50 as the concentration at which inhibition is half-maximal. Read a high IC50 as weaker potency in that assay. Consider `Cc1c(NS(C)(=O)=O)cccc1N(Cc1ccc(Oc2ccccc2)cc1)Cc1ccc(F)cc1F`, for which the IC50 on Glucocorticoid receptor [1] is more than 30000 nM.

For `Cc1c(NS(C)(=O)=O)cccc1N(Cc1ccccc1)Cc1ccc(Oc2ccc(OC[C@@H](O)C[C@@H](O)CC(=O)O)cc2)cc1`, the IC50 was 2.1 nM against Glucocorticoid receptor [2], 300 nM against Glucocorticoid receptor [3] and more than 30000 nM at Glucocorticoid receptor [1].

Regarding `Cc1c(NS(C)(=O)=O)cccc1N(Cc1ccc(Oc2cccc(OC[C@@H](O)C[C@@H](O)CC(=O)O)c2)cc1)Cc1ccc(F)cc1F`, the IC50 is 15 nM at Glucocorticoid receptor [2], 760 nM at Glucocorticoid receptor [3] and more than 30000 nM against Glucocorticoid receptor [1].

For `Cc1c(NS(C)(=O)=O)cccc1N(Cc1ccc(Oc2cccc(OC[C@@H]3C[C@@H](O)CC(=O)O3)c2)cc1)Cc1ccc(F)cc1F`, the IC50 was 25 nM on Glucocorticoid receptor [2], 670 nM against Glucocorticoid receptor [3] and more than 30000 nM against Glucocorticoid receptor [1].

In the case of `CC#C[C@]1(O)CC[C@H]2[C@@H]3CCC4=CC(=O)CCC4=C3[C@@H](c3ccc(N(C)C[C@@H](O)C[C@@H](O)CC(=O)O)cc3)C[C@@]21C`, the IC50 was determined as 6.8 nM against Glucocorticoid receptor [2], 32 nM against Progesterone receptor, 18 nM against Glucocorticoid receptor [3] and 130 nM against Glucocorticoid receptor [1].

Turning to `CC#C[C@]1(O)CC[C@H]2[C@@H]3CCC4=CC(=O)CCC4=C3[C@@H](c3ccc(N(C)C[C@@H]4C[C@@H](O)CC(=O)O4)cc3)C[C@@]21C`, the IC50 against Glucocorticoid receptor [2] was 2.3 nM; against Progesterone receptor, 3.8 nM; on Glucocorticoid receptor [3], 23 nM; on Glucocorticoid receptor [1], 140 nM.

`Cc1c(NS(C)(=O)=O)cccc1N(Cc1ccccc1)Cc1ccc(Oc2ccc(OC[C@@H]3C[C@@H](O)CC(=O)O3)cc2)cc1`: the 50% inhibitory concentration (IC50) was 2.1 nM on Glucocorticoid receptor [2], 440 nM against Glucocorticoid receptor [3] and more than 30000 nM at Glucocorticoid receptor [1].

For `CC#C[C@]1(O)CC[C@H]2[C@@H]3CCC4=CC(=O)CCC4=C3[C@@H](c3ccc(N(C)C[C@@H](O)CC(=O)O)cc3)C[C@@]21C`, the IC50 against Glucocorticoid receptor [2] was 37 nM; against Progesterone receptor it was 200 nM; on Glucocorticoid receptor [3], 76 nM; on Glucocorticoid receptor [1], 220 nM.

As to `CC#C[C@]1(O)CC[C@H]2[C@@H]3CCC4=CC(=O)CCC4=C3[C@@H](c3ccc(OC[C@@H](O)CC(O)CC(=O)O)cc3)C[C@@]21C` (single isomer, unassigned), the IC50 at Glucocorticoid receptor [2] is 9.2 nM; against Progesterone receptor, 47 nM; against Glucocorticoid receptor [3], 2900 nM; on Glucocorticoid receptor [1] it was 560 nM.
